Measured values from PubChem BioAssay (NCI).
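Five concentrations, 48 hours, 96-well plates. GI50 marks 50% less growth. At the TGI there is no net growth.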

Tests used:
Experiment in all cases: growth of human tumour cells (NCI), 48 h
786-0 renal = test system: 786-0 renal
COLO 205 colon = test system: COLO 205 colon
HOP-62 NSCLC = test system: HOP-62 NSCLC
LOX IMVI melanoma = test system: LOX IMVI melanoma
SF-295 CNS = test system: SF-295 CNS
TK-10 renal = test system: TK-10 renal
BT-549 breast = test system: BT-549 breast
MDA-MB-435 = test system: MDA-MB-435
PC-3 prostate = test system: PC-3 prostate
SR leukemia = test system: SR leukemia

Compound	TGI (786-0 renal)	TGI (COLO 205 colon)	TGI (HOP-62 NSCLC)	TGI (LOX IMVI melanoma)	TGI (SF-295 CNS)	TGI (TK-10 renal)	GI50 (786-0 renal)	GI50 (BT-549 breast)	TGI (BT-549 breast)	GI50 (COLO 205 colon)	GI50 (HOP-62 NSCLC)	GI50 (LOX IMVI melanoma)	GI50 (MDA-MB-435)	TGI (MDA-MB-435)	GI50 (PC-3 prostate)	TGI (PC-3 prostate)	GI50 (SF-295 CNS)	TGI (SR leukemia)	GI50 (SR leukemia)	GI50 (TK-10 renal)
NC1=NN(c2ccccc2)C(=O)C1C(=O)C(=O)Nc1cccc(C(F)(F)F)c1 (stereo not drawn)	> 100 µM	> 100 µM	> 100 µM	> 100 µM	> 100 µM	> 100 µM														
N#Cc1c(N)nc(N2CCOCC2)c(C#N)c1-c1cccc(O)c1	> 100 µM	> 100 µM	> 100 µM	> 100 µM	> 100 µM		> 100 µM	89.9 µM	> 100 µM	69.3 µM	78.3 µM	> 100 µM	> 100 µM	> 100 µM	46.9 µM	> 100 µM	> 100 µM			
N=c1oc2cc(O)c(O)cc2cc1C(N)=O	> 100 µM	> 100 µM	> 100 µM	> 100 µM	> 100 µM	> 100 µM														
Cc1ccc(C2=NN(C)COC2C(F)(F)F)cc1 (stereo not drawn)	> 100 µM	> 100 µM	> 100 µM		> 100 µM													> 100 µM		
O=C(/C=C\c1cccc2ccccc12)c1ccc(Br)cc1	33.7 µM	91.6 µM	> 100 µM		46.5 µM	> 100 µM														
C/C(=N\[N+](C)(C)C)C(c1ccccc1)C1(c2ccccc2)C(c2ccccc2)=C1c1ccccc1 (stereo not drawn)	> 100 µM		> 100 µM	> 100 µM	> 100 µM	> 100 µM														
COc1ccc(/C(Cl)=C(\C=O)c2cc(OC)c(OC)c(OC)c2)cc1OC	> 100 µM	> 100 µM	> 100 µM	> 100 µM	> 100 µM	> 100 µM								> 100 µM		> 100 µM		> 100 µM		
COc1ccc2c(c1)/C(=C/c1c(-c3ccc(C)cc3)nc3sc(C)cn13)C(=O)N2	50.2 µM	> 100 µM	> 100 µM		> 100 µM	> 100 µM	6.68 µM			19.8 µM	19.7 µM		19 µM	> 100 µM	4.61 µM	> 100 µM	11 µM	28.7 µM	1.59 µM	7.93 µM
CCOC(=O)C(=O)Nc1ccc([N+](=O)[O-])cc1C#N	> 100 µM		> 100 µM	> 100 µM	> 100 µM	> 100 µM												> 100 µM		
C[C@]12CC[C@H]3[C@@H](CC=C4C[C@@H](O)CC[C@@]43C)[C@@H]1C/C(=C\c1cccc(OCCCn3ccnc3)c1)[C@@H]2O	35 µM	27 µM	32.7 µM	39.6 µM	26.4 µM	31.3 µM	10.5 µM			8.33 µM	15.1 µM	15.7 µM	9.99 µM	42.6 µM	9.48 µM	56.6 µM	6.8 µM	47.7 µM	6.67 µM	16.6 µM
CCCN1C(=O)/C(=C/c2ccc(O)cc2)SC1=Nc1ccccc1	36.9 µM	51.3 µM	37.9 µM	29.3 µM	68.7 µM	38.5 µM	20.5 µM			22.7 µM	21.2 µM	14.7 µM	21.6 µM	41.5 µM	28.9 µM	59.8 µM	27.9 µM	> 100 µM	14 µM	18.6 µM
O=C(CCc1ccc(O)c(O)c1)c1ccc(O)c(O)c1O	> 100 µM	34.3 µM		> 100 µM	36.7 µM	47.3 µM								62.2 µM		> 100 µM		> 100 µM		
Cc1ccc(NC(=O)/C(=N/NC(=O)CC#N)C2C(=O)N(c3ccccc3)N=C2N)cc1C (stereo not drawn)	> 100 µM	> 100 µM	> 100 µM	> 100 µM	> 100 µM	> 100 µM												> 100 µM		
COc1ccc(C2c3cc4c(cc3OC(O)(CO)C2C(=O)O)OCO4)c(OC)c1OC (stereo not drawn) (tested in a mixture with another compound)	> 100 µM	> 100 µM	> 100 µM	> 100 µM	> 100 µM	> 100 µM														
CC1(C)OC(=O)C=C(O)O1.CC1(C)OC(=O)C=C(O)O1.CCO.Oc1ccc2c(c1)CCC2.[Ti]	> 100 µM	> 100 µM	> 100 µM	> 100 µM	> 100 µM	> 100 µM	> 100 µM			> 100 µM	> 100 µM	> 100 µM					> 100 µM			> 100 µM
CC1CC(C)C(=O)C(C(=O)CC2CC(=O)NC2=O)C1 (stereo not drawn)	> 100 µM	> 100 µM	> 100 µM	> 100 µM	> 100 µM	> 100 µM												> 100 µM		
CC1(C)CC2=NOS3=C2C(=NO3)C1c1ccccn1 (stereo not drawn)	> 100 µM	80.5 µM	> 100 µM	> 100 µM	> 100 µM	> 100 µM								39 µM		> 100 µM		81 µM		

Compound	TGI (786-0 renal)	TGI (COLO 205 colon)	TGI (HOP-62 NSCLC)	TGI (LOX IMVI melanoma)	TGI (SF-295 CNS)	TGI (TK-10 renal)	GI50 (786-0 renal)	GI50 (BT-549 breast)	TGI (BT-549 breast)	GI50 (COLO 205 colon)	GI50 (HOP-62 NSCLC)	GI50 (LOX IMVI melanoma)	GI50 (MDA-MB-435)	TGI (MDA-MB-435)	GI50 (PC-3 prostate)	TGI (PC-3 prostate)	GI50 (SF-295 CNS)	TGI (SR leukemia)	GI50 (SR leukemia)	GI50 (TK-10 renal)
COc1ccc(C(=O)O)c2c(=O)c3ccccc3[nH]c12	> 100 µM	> 100 µM	> 31.6 µM	> 100 µM	> 100 µM	> 100 µM												> 100 µM		
O=C(Nc1ccc(N=Nc2ccccc2)cc1)Sc1ccccc1C(=O)O	> 100 µM	> 100 µM	> 100 µM	> 100 µM	> 100 µM	> 100 µM												> 100 µM		
CCC12CC[C@H](C#N)N3CCc4c(n(c5ccccc45)C(=O)C1)C32 (stereo partly drawn)	34.1 µM	43.1 µM	49.2 µM	27.3 µM	31.2 µM	46.8 µM														
COC1=CC(C)C2C[C@H]3O[C@H](O)C[C@H]4C(C)C(=O)C(O)C([C@@]2(C)C1=O)[C@@]34C (stereo partly drawn)	> 100 µM	> 100 µM		> 100 µM	> 100 µM	> 100 µM														
O=C1CC(c2ccccc2)NCN1 (stereo not drawn)	> 100 µM	> 100 µM	> 100 µM	> 100 µM	> 100 µM	> 100 µM												> 100 µM		
NC(=S)N/N=C1\C(=O)N(c2cccc([N+](=O)[O-])c2)C(=O)C1C(=O)Nc1cccc([N+](=O)[O-])c1 (stereo not drawn)	> 100 µM	> 100 µM	> 100 µM	> 100 µM	> 100 µM	> 100 µM														
N#CC(c1ccc(Cl)cc1)c1cccc(Cl)n1 (stereo not drawn)	> 100 µM	> 100 µM	> 100 µM		> 100 µM	> 100 µM												> 100 µM		
COc1cc2c(cc1OCCCCCN1CCN(c3cc(=O)oc4c(C)c(OC)ccc34)CC1)N=C[C@@H]1CCCN1C2=O		0.0849 µM	0.0301 µM		2.42 µM	13.3 µM	< 0.01 µM	< 0.0119 µM	0.155 µM	< 0.01 µM	< 0.0107 µM		< 0.0112 µM	0.0262 µM	< 0.01 µM	0.408 µM	< 0.0139 µM			< 0.0129 µM
c1cc2[se][se]c3c4cccc5[se][se]c(c(c1)c23)c54	> 100 µM	> 100 µM	> 100 µM	> 100 µM	> 100 µM	> 100 µM												> 100 µM		
C/C=C/CP(=O)(c1ccccc1)c1ccccc1	> 100 µM	> 100 µM	> 100 µM	> 100 µM	> 100 µM	> 100 µM												> 100 µM		
Cc1nc(Nc2ccccc2)sc1C(=O)NNC(N)=O	> 100 µM	> 100 µM	> 100 µM	> 100 µM	> 100 µM	> 100 µM														
O[C@H]1[C@H]2[C@H](O)CCCN2C[C@H]1O	> 100 µM	> 100 µM	> 100 µM	> 100 µM	> 100 µM	> 100 µM														
O=C(/C=C/c1ccc2c(c1)OCO2)c1ccccc1	31 µM	36.7 µM	80.9 µM	25.9 µM	28.8 µM		14.8 µM			19.1 µM	23.9 µM	12.6 µM	3.58 µM	19.3 µM	22.5 µM	58.4 µM	11.5 µM	13.9 µM	2.56 µM	
CC(=O)[CH-]C(C)=O.CC(=O)[CH-]C(C)=O.CC(=O)[CH-]C(C)=O.[Cl-].[Hf+4]	> 100 µM	> 100 µM	> 100 µM	> 100 µM	> 100 µM	> 100 µM	> 100 µM			> 100 µM	> 100 µM	> 100 µM					> 100 µM	> 100 µM	> 100 µM	> 100 µM
CC(=O)Oc1cc2c(=O)oc3c(OC(C)=O)c(OC(C)=O)c(OC(C)=O)c4c(=O)oc(c1OC(C)=O)c2c34	> 100 µM	> 100 µM	> 100 µM	32.6 µM	52.9 µM	> 100 µM												> 100 µM		
CO/C=C/c1cc2c(cc1C(OC)OC)OCO2	> 100 µM		75 µM			> 100 µM												> 100 µM		
CCOC(=O)c1ccc(C(O)CC(=O)OC(C)(C)C)[nH]1 (stereo not drawn)	83.3 µM	> 100 µM	> 100 µM	86.8 µM	63.5 µM	> 100 µM	23.9 µM			41.3 µM	45.1 µM	25.1 µM	24.1 µM	62.2 µM	21.3 µM	62 µM	29.7 µM	> 100 µM	22.4 µM	58.4 µM
